Results as given in US10344037B2, “Use of the FL-one hundred eighteen core chemical structure platform to generate FL-one hundred eighteen derivatives for treatment of human disease” (priority 2014, dated 2019).
pIC50: −log10 of the molar value. Read-outs that look alike come from different tables or passages of the source.

Legend:
[1] = tested on: RC0.1 (DU145-RC0.1) cells; conditions: adopted from Urasaki Y et al.; cited from earlier work
[2] = tested on: DU145 prostate cancer cells; conditions: DU-145; adopted from Urasaki Y et al.; cited from earlier work
[3] = tested on: RC0.1 (DU145-RC0.1) cells; experiment: Cell growth inhibition, DU145 sub-line with Top1 mutation; assay type: cell-based, human
From the text: (§1) Each dot is the mean±SD derived from 3 independent assays.
(§2) Irinotecan and topotecan are the only two analogs derived from direct modification of camptothecin (CPT) that are approved by the FDA for cancer treatment in clinical practice. […] In this regard, we obtain one DU145 parental prostate cancer cell line and two DU145-derived sub-lines with Top1 mutations (DU145-RC0.1, DU145-RC1).

RC1 (DU145-RC1) cells [4] = experiment: as above; assay type: cell-based, human
From the text: as §1, §2

[5] = tested on: DU145 prostate cancer cells; experiment: Cell growth inhibition, cell counting after 72 h; assay type: cell-based, human
From the text: as §1, §2

RC1 (DU145-RC1) cells [6] = conditions: adopted from Urasaki Y et al.; cited from earlier work
ABCG2 in HCT116-A2 cells [7] = assay type: cell-based, human
Procedure: Cell numbers are then counted at each drug concentration used. […] Cell numbers at each dot is the mean±SD derived from 3 independent assays. Data are plotted graphically and EC50 values are calculated using GraphPad Prism 6.0.
ABCG2 positive HCT116-derived colon cancer cells (HCT116-A2) grown at sub-confluence are treated with a series of concentrations of topotecan in triplicate for 72 hours in the presence or absence of Ko143 at 1 μM concentrations as shown. Cell numbers are then counted at each topotecan concentration used. […] Cell numbers at each dot is the mean±SD derived from 3 independent assays. Data are plotted graphically and EC50 values and R-values are calculated using GraphPad Prism 6.0.
Clinically, development of resistance to irinotecan and topotecan occurs commonly during treatment, often involving the upregulation of ABCG2. By increasing the rate of drug export, ABCG2 decreases the amount of SN-38, irinotecan or topotecan that accumulates intracellularly, thereby protecting cancer cells from the cytotoxic effects of these chemotherapeutic drugs.

HCT116-G7 cells = experiment: cells; assay type: cell-based, human; conditions: for RP: IC50 of topotecan divided by IC50 of the drug
Procedure: (§3) Cancer cell viability and growth are determined by MTT assay. […] MTT is used as a colorimetric substrate for measuring cell viability and growth. When cell growth is inhibited, there is an alteration of cellular redox activity, and thus rendering cells unable to reduce the MTT dye. Cells are seeded in 96 well plates overnight and then treated with or without a compound/drug in the presence or absence of an protein molecule inhibitor (e.g. ABCG2 inhibitor ko143) for 48-72 hours, MTT is added to a final concentration 0.5 mg/ml. Cells are continuously incubated in a 5% CO2 incubator at 37° C. for 4 h with MTT and then lysed with a cell lysis buffer (20% SDS, 50% N,N-dimethylformamide, pH 4.7), 100 μl per well, for 4 h in the incubator. Subsequently, cell absorbance in each well is measured at 570 nm with an Ultra Microplate Reader (Bio-Tek Instruments). Results are reported as the mean±SD from 3-5 independent assays at each point. […] After 72 hours, media is removed and cells are harvested using 0.5 ml of 0.25% Trypsin-EDTA. Cells are counted and viability is analyzed on a Vi-CELL XR Cell Viability Analyzer (Beckman Coulter).

HCT116-A2 cells = experiment: cells; assay type: cell-based, human; conditions: for RP: IC50 of topotecan divided by IC50 of the drug
Procedure: as §3

ABCG2 in HCT116-A2 cells [8] = experiment: Growth inhibition after ABCG2 shRNA silencing; assay type: cell-based, human; conditions: 72 hours
Procedure: Actin is internal control. B and C. […] Cells at sub-confluence are infected with lentiviral particles containing nonsense shRNA (ns), or AGCG2-specific shRNA (sh1, sh2) to silence ABCG2 expression in the cells. […] Viability for each dose was determined using a ViCELL XR cell viability analyzer and normalized to that of DMSO control. Error bars=SEM, n=3 independent experiments. Data are plotted graphically and EC50 values are calculated using GraphPad Prism 6.0.

HCT116-NS6 cells = experiment: cells; assay type: cell-based, human; conditions: for RP: IC50 of topotecan divided by IC50 of the drug
Procedure: as §3

HCT116-C8 cells = experiment: cells; assay type: cell-based, human; conditions: for RP: IC50 of topotecan divided by IC50 of the drug
Procedure: as §3

[9] = tested on: HCT116 colon cancer cells; experiment: cells; assay type: cell-based, human; conditions: for RP: IC50 of topotecan divided by IC50 of the drug
Procedure: as §3

HCT116-C4 cells = experiment: cells; assay type: cell-based, human; conditions: for RP: IC50 of topotecan divided by IC50 of the drug
Procedure: Cancer cell viability and growth are determined by MTT assay. […] MTT is used as a colorimetric substrate for measuring cell viability and growth. When cell growth is inhibited, there is an alteration of cellular redox activity, and thus rendering cells unable to reduce the MTT dye. Cells are seeded in 96 well plates overnight and then treated with or without a compound/drug in the presence or absence of an protein molecule inhibitor (e.g. ABCG2 inhibitor ko143) for 48-72 hours, MTT is added to a final concentration 0.5 mg/ml. Cells are continuously incubated in a 5% CO2 incubator at 37° C. for 4 h with MTT and then lysed with a cell lysis buffer (20% SDS, 50% N,N-dimethylformamide, pH 4.7), 100 μl per well, for 4 h in the incubator. Subsequently, cell absorbance in each well is measured at 570 nm with an Ultra Microplate Reader (Bio-Tek Instruments). Results are reported as the mean±SD from 3-5 independent assays at each point. Alternatively, for FIG. 16, FIG. 17 and FIG. 19, cells are plated at a density of 300,000 cells/well in 6-well plates; cells are allowed to attach on the plate overnight. […] After 72 hours, media is removed and cells are harvested using 0.5 ml of 0.25% Trypsin-EDTA. Cells are counted and viability is analyzed on a Vi-CELL XR Cell Viability Analyzer (Beckman Coulter).

ABCG2 in HEK293 cells [10] = experiment: Intracellular drug concentration by flow cytometry; assay type: cell-based, human
Procedure: Cells are then incubated for 3 h in 37 C and 5% CO2, with manual agitation every 30 min. After incubation, cells are pelleted and supernatant is removed. Cell pellets are washed twice with ice-cold PBS, and then suspended in 300 uL ice-cold PBS, and placed on ice until analysis. Cells are analyzed on a LSR II flow cytometer (BD Biosciences, San Jose Calif.) with a 355 nm laser and a 540 nm band-pass filter to detect emission. Median fluorescence intensity (MFI) of each drug+/−Ko143 is compared.

HCT-8 cells = experiment: Colony formation after 2 h or 6 h drug treatment; assay type: cell-based, human
Procedure: Subconfluent SW620, HCT-8, and HCT-116 cells were lysed and analyzed for the expression of MDR1 and ABCG2 using western blots (WB). Actin is the internal control. […] Cell growth/viability was then analyzed by MTT assays. Each time point in the individual curve is the mean±SD from 3 to 5 independent assays. […] Drugs were then washed out and cells were allowed to grow in new medium without drugs for 2 weeks. Cell colonies were stained with crystal violet solution; images were digitally taken. Triplicate results are shown.
Cell growth is then measured and the data are plotted as percentage of growth inhibition (no drug treatment was set at 0%). […] C. […] Representative cancer cell images were taken with a digital camera under phase-contrast microscope.

in vivo = conditions: SCID, mouse, in vivo, ip
Procedure: Individual tumor curves derived from individual mice are shown. A. Mice with FaDu head-&-neck tumor xenografts were first treated with irinotecan at its maximum tolerated dose (MTD, 100 mg/kg, IP) weekly for 4-5 times (black arrow). […] B. Mice with FaDu tumor xenografts were first treated with topotecan at its MTD (4 mg/kg, IP) via daily×5 schedules for 4 cycles (each black arrow is one cycle). […] C. Mice with SW620 CRC xenografts were first treated with irinotecan at its MTD (IP, weekly×4, black arrow). […] D. Mice with SW620 xenograft tumors were first treated with topotecan at its MTD.

ABCG2 in HEK293 cells [11] = tested on: ABCG2 in HEK293 cells
[12] = tested on: human umbilical vein endothelial cells (HUVECS); experiment: Cell growth and viability, MTT; assay type: cell-based; conditions: 72 hours
cancer cells = experiment: Cell growth and viability, MTT; assay type: cell-based, human; conditions: 72 hours
Procedure: Actin is an internal control for equal protein loading. […] Subconfluent cancer cells as shown are treated with a series of concentrations of crolibulin as shown (0-100 μM) for 72 hours. Cell growth and viability are determined via MTT assay. Each curve is the mean±SD from 4 independent assays.
Crolibulin is an anticancer drug that targets endothelial cells of the cancer vasculature system. Therefore, crolibulin is considered as a vascular disrupt agent (VDA).

survivin = experiment: Western blot for survivin expression in FaDu cells; assay type: cell-based, human; conditions: 24 hours
[13] = DU-145, IC50 of topotecan divided by IC50 of the drug

SMILES | pIC50 [1] | pIC50 [2] | RP (relative potency) [5, 13] | pIC50 (RC1 (DU145-RC1) cells [6]) | RP (HCT116-G7 cells) | RP (relative potency) [3] | RP (relative potency) (RC1 (DU145-RC1) cells [4]) | RP (HCT116-A2 cells) | RP (HCT116-NS6 cells) | RP (HCT116-C8 cells) | RP [9] | RP (HCT116-C4 cells) | other results
CC[C@@]1(O)C(=O)OCc2c1cc1n(c2=O)Cc2cc3ccccc3nc2-1 [CPT, camptothecin] | 4.20 | 7.22 | 3.17 | 4.66 | – | – | – | – | – | – | – | – | RP (relative potency) ([3]; RC0.1, IC50 of topotecan divided by IC50 of the drug): 0.97; RP (relative potency) (RC1 (DU145-RC1) cells [4]; RC1, IC50 of topotecan divided by IC50 of the drug): 2.69
CCc1c2c(nc3ccc(O)cc13)-c1cc3c(c(=O)n1C2)COC(=O)[C@]3(O)CC [SN-38] | 4.93 | 7.40 | – | 5.35 | 4.048 | 5.24 | 13.2 | 2.499 | 5.055 | 44.69 | 2.474 | 3.337 | effect of ABCG2 inhibitor Ko143 on potency (ABCG2 in HCT116-A2 cells [7]; HCT116-A2 cells, 72 hours, Ko143 1 μM): Ko143 restores potency to SN-38; pIC50 (HCT116-G7 cells): 8.32; pIC50 (HCT116-A2 cells): 7.36; effect of silencing of ABCG2 on cell growth inhibition (ABCG2 in HCT116-A2 cells [8]): significantly sensitizes SN-38 to inhibit cell growth; pIC50 (HCT116-NS6 cells): 8.95; pIC50 (HCT116-C8 cells): 8.07; pIC50 [9]: 9.72; RP (relative potency) [5]: 4.75; pIC50 (HCT116-C4 cells): 7.59
CC[C@@]1(O)C(=O)OCc2c1cc1n(c2=O)Cc2cc3c(CN(C)C)c(O)ccc3nc2-1 [Topotecan, topotecan] | 4.21 | 6.72 | 1 | 4.23 | 1 | 1 | 1 | 1 | 1 | 1 | 1 | 1 | effect of ABCG2 inhibitor Ko143 on potency (ABCG2 in HCT116-A2 cells [7]): ABCG2 is also a topotecan resistance factor; effect of ABCG2 overexpression on intracellular concentration (ABCG2 in HEK293 cells [10]): decreases intracellular concentration; colony formation inhibition, 6 hours versus 2 hours of treatment (HCT-8 cells): significantly better colony formation inhibition; pIC50 (HCT116-G7 cells; Homo sapiens): 7.71; MTD (in vivo): 4 mg/kg; pIC50 (HCT116-A2 cells; Homo sapiens): 6.96; pIC50 (HCT116-NS6 cells; Homo sapiens): 8.25; pIC50 (HCT116-C8 cells; Homo sapiens): 6.42; effect of ABCG2 overexpression on IC50 for inhibition of cell growth (ABCG2 in HEK293 cells [11]): significantly increases IC50; pIC50 ([9]; Homo sapiens, HCT-116): 9.13; pIC50 (HCT116-C4 cells; Homo sapiens): 7.07
COc1cc([C@H]2C(C#N)=C(N)Oc3c2ccc(N)c3N)cc(Br)c1OC [crolibulin, reference compound] | – | – | – | – | – | – | – | – | – | – | – | – | sensitivity of HUVEC cells [12]: sensitive to crolibulin inhibition; sensitivity of cancer cells (cancer cells): resistant to crolibulin inhibition; survivin expression (survivin): strongly induce survivin expression
